Tests used:
Format in all cases: cell-based
[1] = test system: Bacillus subtilis DSM 32315; test: Compatibility of spores with additives on agar plates; details: neopentyl glycol 7 g/L, Protectosil WS405 20 g/L
Experimental: For spores of the strain Bacillus subtilis DSM 32315 compatibility with neopentyl glycol (7 g/L) and Protectosil® WS405 (20 g/L) was investigated on agar plates. A mixture of 3 g of meat extract, 5 g of peptone from casein and 1000 mL of distilled water adjusted to pH 7 using HCl/NaOH was used as medium.

[2] = test system: Bacillus pseudofirmus (DSM 8715); test: Compatibility of microorganisms with hydrophobizing agent and shrinkage reducer, liquid culture, turbidity; details: WS405 5, 20 or 30 g/L; neopentyl glycol 0.7, 7 or 14 g/L; 4 days, 30° C.
Experimental: (§1) The strains Bacillus subtilis (DSM 10) and Bacillus pseudofirmus (DSM 8715) were investigated for compatibility with hydrophobizing agents and shrinkage reducers.
(§2) A mixture of 3 g of meat extract, 5 g of peptone from casein and 1000 mL of distilled water adjusted to pH 7 using HCl/NaOH for Bacillus subtilis (DSM 10) and adjusted to pH 7 using Na sesquicarbonate for Bacillus pseudofirmus (DSM 8715) was used as the medium.
(§3) A pre-culture was initially produced for each of the two strains: To this end, an inoculation dose of the spores was in each case placed into a culture tube with 8 mL of the respective medium and left overnight in a laboratory shaker at 30° C. and 200 revolutions per minute. Furthermore, aqueous stock solutions respectively having a concentration of Protectosil® WS405 (hydrophobizing agent) of 500 g/L and a concentration of neopentyl glycol (shrinkage reducer) of 280 g/L were produced.
(§4) For the main cultures two 6-well spot plates were each filled with 8 mL of medium. Then, 10 μL of the first pre-culture were added to each well of the first plate and 10 μL of the second pre-culture were added to each well of the second plate. […]

[3] = test system: Bacillus subtilis (DSM 10); test: as above; details: WS405 5, 20 or 30 g/L; neopentyl glycol 0.7, 7 or 14 g/L; 4 days, 30° C.
Experimental: as §1, §2, §3, §4

CC(C)(CO)CO [neopentyl glycol]
formation of colonies in presence of additive [1]: Formation of colonies was observed in all cases | growth of microorganism in presence of additive (turbidity) [2]: growth of neither organism was impaired | growth of microorganism in presence of additive (turbidity) [3]: growth of neither organism was impaired
